What follows are compounds tested against MCH receptor (Homo sapiens, UniProt Q99705) (assay: High throughput functional screening FLIPR/FDSS6000: inhibition of MCH-evoked intracellular Ca2+ changes). Conditions: class by percent of control at 10^-7 M or IC50.
Assay type: cell-based
In short: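 Constitutively active non-endogenous MCH-R cells; Fluo4-AM 4 μM, 2.5 mM probenecid, 1 hr, 37° C; cpd 3 min, 37° C; MCH 50 nM (antagonist mode); kinetic Ca2+ read Ex488/Em530, 290 s.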

| SMILES | class |
| --- | --- |
| Cc1cc(C)c(NC(=O)NC[C@H]2CC[C@@H](Nc3nc(N(C)C)c4ccccc4n3)CC2)c(C)c1 [compound 458, N-[(cis-4-{[4-(dimethylamino)quinazolin-2-yl]amino}cyclohexyl)methyl]-N′-mesitylurea] | 1 (Class 1: The value of percent of control at 10^−7 M was less than 40% or the value of IC50 was less than 50 nM.) |
| CN(C)c1nc(N[C@H]2CC[C@@H](CNC(=O)Nc3ccc4c(c3)Cc3ccccc3-4)CC2)nc2ccccc12 [compound 569] | 3 (Class 3: The value of percent of control at 10^−7 M was more than 60% or the value of IC50 was more than 200 nM.) |
| CN(C)c1nc(N[C@H]2CC[C@@H](CNC(=O)NC3CCCCC3)CC2)nc2ccccc12 [compound 417, N-cyclohexyl-N′-[(cis-4-{[4-(dimethylamino)quinazolin-2-yl]amino}cyclohexyl)methyl]urea] | 2 (Class 2: The value of percent of control at 10^−7 M was from 40% to 60% or the value of IC50 was from 50 nM to 200 nM.) |
| CN(C)c1nc(N[C@H]2CC[C@@H](NC(=S)Nc3ccc(-c4cnco4)cc3)CC2)nc2ccccc12 [compound 401] | 3 (Class 3: The value of percent of control at 10^−7 M was more than 60% or the value of IC50 was more than 200 nM.) |
| Cc1cc(C)c(NC(=S)NC[C@H]2CC[C@@H](Nc3nc(N(C)C)c4ccccc4n3)CC2)c(C)c1 [compound 672, N-[(cis-4-{[4-(dimethylamino)quinazolin-2-yl]amino}cyclohexyl)methyl]-N′-mesitylthiourea] | 2 (Class 2: The value of percent of control at 10^−7 M was from 40% to 60% or the value of IC50 was from 50 nM to 200 nM.) |
| COC(=O)c1cc(NC(=O)NC[C@H]2CC[C@@H](Nc3nc(N(C)C)c4ccccc4n3)CC2)cc(C(=O)OC)c1 [compound 751] | 3 (Class 3: The value of percent of control at 10^−7 M was more than 60% or the value of IC50 was more than 200 nM.) |
| CN(C)c1nc(N[C@H]2CC[C@@H](CNC(=O)Nc3cccc(C(F)(F)F)c3F)CC2)nc2ccccc12 [compound 495] | 3 (Class 3: The value of percent of control at 10^−7 M was more than 60% or the value of IC50 was more than 200 nM.) |
| CN(C)c1nc(N[C@H]2CC[C@@H](NC(=S)NCc3ccc(F)cc3)CC2)nc2ccccc12 [compound 274, N-(cis-4-{[4-(dimethylamino)quinazolin-2-yl]amino}cyclohexyl)-N′-(4-fluorobenzyl)thiourea] | 2 (Class 2: The value of percent of control at 10^−7 M was from 40% to 60% or the value of IC50 was from 50 nM to 200 nM.) |
| CN(C)c1nc(N[C@H]2CC[C@@H](CNC(=O)Nc3ccc(Br)cc3Cl)CC2)nc2ccccc12 [compound 543] | 3 (Class 3: The value of percent of control at 10^−7 M was more than 60% or the value of IC50 was more than 200 nM.) |
| Cc1cc(NC(=S)N[C@H]2CC[C@@H](Nc3nc(N(C)C)c4ccccc4n3)CC2)ccc1Br [compound 312] | 3 (Class 3: The value of percent of control at 10^−7 M was more than 60% or the value of IC50 was more than 200 nM.) |
| CN(C)c1nc(N[C@H]2CC[C@@H](CNC(=S)Nc3ccc(C(C)(C)C)cc3)CC2)nc2ccccc12 [compound 796] | 3 (Class 3: The value of percent of control at 10^−7 M was more than 60% or the value of IC50 was more than 200 nM.) |
| CN(C)c1nc(N[C@H]2CC[C@@H](CNC(=S)NC3CC3)CC2)nc2ccccc12 [compound 712] | 3 (Class 3: The value of percent of control at 10^−7 M was more than 60% or the value of IC50 was more than 200 nM.) |
| CN(C)c1nc(N[C@H]2CC[C@@H](NC(=S)Nc3ccc(F)c(Cl)c3)CC2)nc2ccccc12 [compound 384] | 3 (Class 3: The value of percent of control at 10^−7 M was more than 60% or the value of IC50 was more than 200 nM.) |
| CN(C)c1nc(N[C@H]2CC[C@@H](CNC(=O)Nc3ccsc3)CC2)nc2ccccc12 [compound 764, N-[(cis-4-{[4-(dimethylamino)quinazolin-2-yl]amino}cyclohexyl)methyl]-N′-3-thienylurea] | 2 (Class 2: The value of percent of control at 10^−7 M was from 40% to 60% or the value of IC50 was from 50 nM to 200 nM.) |
| CN(C)c1nc(N[C@H]2CC[C@@H](NC(=S)Nc3ccc(OCc4ccccc4)cc3)CC2)nc2ccccc12 [compound 265] | 3 (Class 3: The value of percent of control at 10^−7 M was more than 60% or the value of IC50 was more than 200 nM.) |
| COc1cc([N+](=O)[O-])ccc1NC(=O)NC[C@H]1CC[C@@H](Nc2nc(N(C)C)c3ccccc3n2)CC1 [compound 503] | 3 (Class 3: The value of percent of control at 10^−7 M was more than 60% or the value of IC50 was more than 200 nM.) |
| CN(C)c1nc(N[C@H]2CC[C@@H](CNC(=O)Nc3cccc(Oc4ccccc4)c3)CC2)nc2ccccc12 [compound 534] | 3 (Class 3: The value of percent of control at 10^−7 M was more than 60% or the value of IC50 was more than 200 nM.) |
| CCC[C@H]1CC[C@H](c2ccc(NC(=S)NC[C@H]3CC[C@@H](Nc4nc(N(C)C)c5ccccc5n4)CC3)cc2)CC1 [compound 601] | 3 (Class 3: The value of percent of control at 10^−7 M was more than 60% or the value of IC50 was more than 200 nM.) |
| CC(NC(=O)NC[C@H]1CC[C@@H](Nc2nc(N(C)C)c3ccccc3n2)CC1)c1ccccc1 (relative stereo) [compound 465, N-[(cis-4-{[4-(dimethylamino)quinazolin-2-yl]amino}cyclohexyl)methyl]-N′-(1-phenylethyl)urea] | 2 (Class 2: The value of percent of control at 10^−7 M was from 40% to 60% or the value of IC50 was from 50 nM to 200 nM.) |
| Cc1cc(Br)cc(C)c1NC(=S)NC[C@H]1CC[C@@H](Nc2nc(N(C)C)c3ccccc3n2)CC1 [compound 691, N-(4-bromo-2,6-dimethylphenyl)-N′-[(cis-4-{[4-(dimethylamino)quinazolin-2-yl]amino}cyclohexyl)methyl]thiourea] | 1 (Class 1: The value of percent of control at 10^−7 M was less than 40% or the value of IC50 was less than 50 nM.) |
| CCOC(=O)c1c(NC(=S)N[C@H]2CC[C@@H](Nc3nc(N(C)C)c4ccccc4n3)CC2)sc2c1CCCC2 [compound 380] | 3 (Class 3: The value of percent of control at 10^−7 M was more than 60% or the value of IC50 was more than 200 nM.) |

Same assay, conditions: class by percent of control at 10^-7 M or by IC50; read-out: class

| IC50 | SMILES |
| --- | --- |
| 50 to 200 nM | COc1ccc(CNC(=O)N[C@H]2CC[C@@H](Nc3nc(N(C)C)c4ccccc4n3)CC2)cc1 [compound 48, N-(cis-4-{[4-(dimethylamino)quinazolin-2-yl]amino}cyclohexyl)-N′-(4-methoxybenzyl)urea] |
| < 50 nM | CN(C)c1nc(N[C@H]2CC[C@@H](NC(=O)Nc3ccc(Br)cc3Br)CC2)nc2ccccc12 [compound 77, N-(2,4-dibromophenyl)-N′-(cis-4-{[4-(dimethylamino)quinazolin-2-yl]amino}cyclohexyl)urea] |
| > 200 nM | CCNC(=O)N[C@H]1CC[C@@H](Nc2nc(N(C)C)c3ccccc3n2)CC1 [compound 32] |
| 50 to 200 nM | CN(C)c1nc(N[C@H]2CC[C@@H](NC(=S)NC3CCCC3)CC2)nc2ccccc12 [compound 162, N-cyclopentyl-N′-(cis-4-{[4-(dimethylamino)quinazolin-2-yl]amino}cyclohexyl)thiourea] |
| > 200 nM | CN(C)c1nc(N[C@H]2CC[C@@H](NC(=O)OCC(Cl)(Cl)Cl)CC2)nc2ccccc12 [compound 865] |
| > 200 nM | CN(C)c1nc(N[C@H]2CC[C@@H](NC(=O)Nc3cccc(F)c3)CC2)nc2ccccc12 [compound 37] |
| < 50 nM | CN(C)c1nc(N[C@H]2CC[C@@H](NC(=O)Nc3ccc(F)cc3)CC2)nc2ccccc12 [compound 36, N-(cis-4-{[4-(dimethylamino)quinazolin-2-yl]amino}cyclohexyl)-N′-(4-fluorophenyl)urea] |
| 50 to 200 nM | CN(C)c1nc(N[C@H]2CC[C@@H](CNC(=S)NCC3CC3)CC2)nc2ccccc12 [compound 800] |
| > 200 nM | Cc1cccc([N+](=O)[O-])c1NC(=O)N[C@H]1CC[C@@H](Nc2nc(N(C)C)c3ccccc3n2)CC1 [compound 110] |

| SMILES | IC50 |
| --- | --- |
| CN(C)c1nc(N[C@H]2CC[C@@H](NC(=O)Oc3ccc(Br)cc3)CC2)nc2ccccc12 [compound 850] | > 200 nM |

Same assay, conditions: class by percent of control at 10^−7 M or by IC50; read-out: class

| IC50 | SMILES |
| --- | --- |
| > 200 nM | CN(C)c1nc(N[C@H]2CC[C@@H](CNC(=O)[C@H](O)c3ccccc3)CC2)nc2ccccc12 [Example 1102, (2R)-N-[(cis-4-{[4-(dimethylamino)quinazolin-2-yl]amino}cyclohexyl)methyl]-2-hydroxy-2-phenylacetamide] |
| < 50 nM | CN(C)c1nc(N[C@H]2CC[C@@H](NC(=O)c3cccnc3Oc3ccccc3OC(F)(F)F)CC2)nc2ccccc12 [Example 1033, N-(cis-4-{[4-(dimethylamino)quinazolin-2-yl]amino}cyclohexyl)-2-[2-(trifluoromethoxy)phenoxy]nicotinamide] |
| < 50 nM | C[C@@H](NC(=O)[C@H]1CC[C@@H](Nc2nc(N(C)C)c3ccccc3n2)CC1)c1ccccc1 [Example 1189, cis-4-{[4-(dimethylamino)quinazolin-2-yl]amino}-N-[(1R)-1-phenylethyl]cyclohexanecarboxamide] |
| < 50 nM | CN(C)c1nc(N[C@H]2CC[C@@H](NC(=O)c3ccc(Oc4ccc(F)c(F)c4)nc3)CC2)nc2ccccc12 [Example 1065, 6-(3,4-difluorophenoxy)-N-(cis-4-{[4-(dimethylamino)quinazolin-2-yl]amino}cyclohexyl)nicotinamide] |
| < 50 nM | CN(C)c1nc(N[C@H]2CC[C@@H](C(=O)NCc3cccc(C(F)(F)F)c3F)CC2)nc2ccccc12 [Example 1177, cis-4-{[4-(dimethylamino)quinazolin-2-yl]amino}-N-[2-fluoro-3-(trifluoromethyl)benzyl]cyclohexanecarboxamide] |
| > 200 nM | CN(C)c1nc(N[C@H]2CC[C@@H](CNC(=O)c3ccc(C(F)(F)F)cc3F)C2)nc2ccccc12 [Example 1125, N-[((1R,3S)-3-{[4-(dimethylamino)quinazolin-2-yl]amino}-cyclopentyl)methyl]-2-fluoro-4-(trifluoromethyl)benzamide] |

— patent US20070010671A1, “Novel quinazoline derivatives and methods of treatment related to the use thereof” (priority 2003, published 2007)
